Structures are written as SMILES.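 Dose response: 5 concentrations. Exposure: 48 h. Format: 96-well plates. Endpoint: linear interpolation; highest concentration if not reached. GI50 = concentration required for 50% inhibition of growth.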 Active and inactive are the calls of the source. Cut-off read from the data, not from the text of the source: active = GI50 up to about 1.1 µM and inactive = higher.

Here are results for 8 molecules from ChEMBL document CHEMBL1201862, “PubChem BioAssay data set” (2004).

Test systems include A498; COLO 205; HCT-15; HL-60; HT-29; IGROV-1; M14; Malme-3M; NCI-H226; NCI-H460; OVCAR-3; OVCAR-4; RPMI-8226; RXF 393; SF-539; SK-MEL-5; U-251; UO-31; MDA-MB-231.
Assay in all cases: NCI-60 cell line screen, 48 h

Take `CC(C)(C)c1nc2c(o1)/C(=N\c1ccccc1)c1ccccc1C2=O`: the GI50 is 17.5 µM (inactive) with A498; 32.3 µM (inactive) in the experiment with COLO 205; 4.25 µM in the experiment on HCT-15; 2.87 µM (inactive) in the experiment with HL-60; 22.7 µM (inactive) in the experiment with HT-29; 6.87 µM (inactive) in the experiment on IGROV-1. The GI50 in the experiment on M14 was 2.33 µM (inactive); in the experiment with Malme-3M, 1.4 µM (inactive); in the experiment on NCI-H226, 9.42 µM (inactive); in the experiment on NCI-H460 it was 6.12 µM (inactive); in the experiment with OVCAR-3, 1.33 µM (inactive); in the experiment on OVCAR-4 it was 2.74 µM (inactive). The GI50 in the experiment on RPMI-8226 is 3.94 µM (inactive); in the experiment on RXF 393, 4.91 µM (inactive); in the experiment with SF-539, 2.99 µM (inactive); in the experiment on SK-MEL-5, 1.42 µM (inactive); in the experiment on U-251, 3.85 µM (inactive); in the experiment with UO-31 it was 5.89 µM (inactive).

As for `COc1ccc(OC)c(-c2cc(=O)c3c(OC)c(OC)c(OC)c(OC)c3o2)c1`, the GI50 was 36.1 µM (inactive) in the experiment with A498; 17.1 µM (inactive) with COLO 205; 21.3 µM in the experiment with HCT-15; 14.2 µM (inactive) in the experiment on HL-60; 33.6 µM (inactive) in the experiment on HT-29; 29.9 µM (inactive) in the experiment on IGROV-1. The GI50 with M14 is 36.1 µM (inactive); in the experiment with MDA-MB-231 it was 40.2 µM (inactive); with Malme-3M, 24.3 µM (inactive); in the experiment with NCI-H226 it was 26.2 µM (inactive); with NCI-H460, 25.4 µM (inactive); in the experiment on OVCAR-3, 23 µM (inactive). Moreover, the GI50 in the experiment with OVCAR-4 was 20 µM (inactive); in the experiment with RPMI-8226, 21.5 µM (inactive); with RXF 393, 22 µM (inactive); in the experiment with SF-539, 41.1 µM (inactive); in the experiment on SK-MEL-5 it was 12.4 µM (inactive); in the experiment with U-251 it was 28.4 µM (inactive). The GI50 in the experiment with UO-31 was 15.4 µM (inactive).

For `NC(=O)C(=O)CC(=O)c1ccccc1NC1=CC(=O)C(=O)c2ccccc21`, the GI50 in the experiment with A498 is > 100 µM (inactive); with COLO 205, > 100 µM (inactive); with HCT-15, more than 53.5 µM; with HL-60, 22.6 µM (inactive); in the experiment on HT-29, > 100 µM (inactive); in the experiment on IGROV-1, > 92.3 µM (inactive). Further, the GI50 with M14 is 46.6 µM (inactive); with Malme-3M, 31.7 µM (inactive); in the experiment on NCI-H226 it was > 73.3 µM (inactive); with NCI-H460, 98.6 µM (inactive); with OVCAR-3 it was 26.7 µM (inactive); in the experiment with OVCAR-4 it was 19.2 µM (inactive). The GI50 with RPMI-8226 is > 40.6 µM (inactive); with RXF 393 it was > 83.4 µM (inactive); in the experiment with SF-539, > 100 µM (inactive); in the experiment with SK-MEL-5, 29.3 µM (inactive); with U-251, > 70 µM (inactive); in the experiment on UO-31, > 68.5 µM (inactive).

For the molecule `COc1cc([C@@H]2c3cc4c(cc3[C@@H](NCc3ccc(C#N)cc3)C3COC(=O)[C@@H]32)OCO4)cc(OC)c1O` (stereo partly drawn), the GI50 in the experiment on A498 was 1.07 µM (active); in the experiment with COLO 205 it was 0.948 µM (active); with HCT-15, 1.16 µM; with HL-60, 0.116 µM (active); in the experiment with HT-29, 1.19 µM (inactive); in the experiment with IGROV-1, 1.15 µM (inactive). In addition, the GI50 in the experiment with M14 was 1.1 µM (active); with Malme-3M it was 1.01 µM (active); with NCI-H226, 0.283 µM (active); in the experiment on NCI-H460, 0.0344 µM (active); in the experiment on OVCAR-3, 2.16 µM (inactive); with OVCAR-4, 20.8 µM (inactive). Also, the GI50 in the experiment with RPMI-8226 was 0.993 µM (active); in the experiment with RXF 393, 2.96 µM (inactive); with SF-539 it was 0.877 µM (active); with SK-MEL-5, 1.5 µM (inactive); with U-251, 0.123 µM (active); in the experiment on UO-31, 1.61 µM (inactive).

Take `O=[N+]([O-])c1ccc(Cl)c(C2CC(c3cccc4ccccc34)=Nc3ccccc3[S+]2[O-])c1` (stereo not drawn): the GI50 is 24.2 µM (inactive) in the experiment with A498; > 56.6 µM (inactive) in the experiment on COLO 205; 13.6 µM with HCT-15; 4.89 µM (inactive) in the experiment on HL-60; 10.9 µM (inactive) with HT-29; 28.2 µM (inactive) with IGROV-1. Further, the GI50 in the experiment with M14 was 17.7 µM (inactive); in the experiment on Malme-3M it was 18.9 µM (inactive); in the experiment with NCI-H226, 21.7 µM (inactive); with NCI-H460, 19.4 µM (inactive); in the experiment with OVCAR-3, 22.6 µM (inactive); in the experiment on OVCAR-4 it was 22 µM (inactive). The GI50 in the experiment with RPMI-8226 is 2.21 µM (inactive); in the experiment with RXF 393, 7.05 µM (inactive); with SF-539 it was 13.7 µM (inactive); with SK-MEL-5, 14.4 µM (inactive); with U-251 it was 13.1 µM (inactive); with UO-31, 17.7 µM (inactive).

With `CCSc1nc2sc(C)c(C)c2c(=O)n1-c1ccc(C(=O)O)cc1`, the GI50 is 29.9 µM (inactive) in the experiment on A498; > 100 µM (inactive) in the experiment on COLO 205; 39.9 µM in the experiment on HCT-15; 35.3 µM (inactive) in the experiment with HL-60; 61 µM (inactive) in the experiment on HT-29; 90.8 µM (inactive) in the experiment with IGROV-1. Besides, the GI50 with M14 was > 100 µM (inactive); with Malme-3M, > 100 µM (inactive); in the experiment with NCI-H226, 19.8 µM (inactive); in the experiment with NCI-H460 it was 60.1 µM (inactive); in the experiment on OVCAR-3, 24.8 µM (inactive); in the experiment on OVCAR-4, 71.8 µM (inactive). Moreover, the GI50 was 34.1 µM (inactive) with RPMI-8226; 25.5 µM (inactive) in the experiment with RXF 393; 18.8 µM (inactive) in the experiment on SF-539; 49 µM (inactive) with SK-MEL-5; 55.5 µM (inactive) in the experiment on U-251; 25.1 µM (inactive) in the experiment with UO-31.

With `CC(C)(C)OC(=O)/C=C/C(=O)O/C=C/[N+](=O)[O-]`, the GI50 in the experiment with A498 was > 100 µM (inactive); in the experiment on COLO 205, > 100 µM (inactive); in the experiment with HCT-15 it was more than 100 µM; in the experiment on HT-29, > 100 µM (inactive); in the experiment with IGROV-1, > 100 µM (inactive); with M14, > 100 µM (inactive). The GI50 in the experiment on MDA-MB-231, in the experiment on NCI-H226, in the experiment on NCI-H460, with OVCAR-3, in the experiment on RPMI-8226 and in the experiment with RXF 393 was > 100 µM (inactive) in each case. Further, the GI50 in the experiment on SF-539, with SK-MEL-5, in the experiment with U-251 and in the experiment with UO-31 was > 100 µM (inactive) in each case.

For the molecule `CCOC(=O)/C(C#N)=C/c1[nH]c(C)c(C)c1C`, the GI50 with A498 was > 100 µM (inactive); with COLO 205 it was > 100 µM (inactive); with HCT-15, more than 100 µM; in the experiment on HL-60, > 100 µM (inactive); in the experiment with HT-29 it was > 100 µM (inactive); with IGROV-1, > 100 µM (inactive). Besides, the GI50 in the experiment with M14, in the experiment with Malme-3M, in the experiment on NCI-H226, with NCI-H460, in the experiment on OVCAR-3 and in the experiment with OVCAR-4 was > 100 µM (inactive) throughout. Further, the GI50 in the experiment on RPMI-8226, in the experiment on RXF 393, in the experiment on SF-539, in the experiment on SK-MEL-5, in the experiment on U-251 and with UO-31 was > 100 µM (inactive) throughout.
